Assays:
Type in all cases: physicochemical
[1] = Oxidation potential of ring-closed and ring-open isomers; details: no unit printed in table (V relative to Ag/AgCl)
Description: In various embodiments, at a PSS, some of the chromophore will be in the ring-closed isomer, with a small, but non-zero portion of ring-open isomer. The oxidation potential of a ring-open isomer may be more anodic than the oxidation potential of a ring-closed isomer. Exposure to a potential that is too far beyond what is necessary to oxidize the ring-closed isomer may result in oxidation of the ring-open isomer, which may be irreversible and result in electrochemically-induced degradation of the chromophore.
Thus, in various embodiments, an anodic chromophore may have an oxidation potential of from about 0.4 V to 1.2 V for the ring-closed isomer and about 1.0 V to 2.5 V for the ring-open isomer relative to an Ag/AgCl reference electrode. In various embodiments, the oxidation potential for the ring-open isomer is about 250 mV more anodic than the oxidation potential for the ring-closed isomer. For example, the oxidation potential may be about 260 mV, about 280 mV, about 300 mV, about 320 mV, about 340 mV, about 360 mV, about 380 mV, about 400 mV, about 420 mV, about 440 mV, or about 460 mV more anodic than the oxidation potential for the ring-closed isomer.

[2] = Photostability: xenon arc weathering of chromophore solutions, LCMS analysis; details: for Ketone (%) / Minus-2HF (%) / Minus-HF (%) / Sulfone (%) / Chromophore Remaining (%): xenon arc, 82° C. bp; for Ketone (%) / Minus-2HF (%) / Minus-HF (%) / Sulfone (%): linearly interpolated to 0.5 MJ/m2 @ 340 nm; for Chromophore Remaining (%): linearly interpolated to 0.5 MJ/m2 @ 340 nm of exposure energy; for Photostability (in words): weathering experiments
Description: Photostability (resistance to light-induced degradation) may be measured by the amount of time required for the compound, or a material comprising the compound, to degrade to a certain point under light exposure. The light exposure may be constant, or cyclic. The light transmittance or absorbance of the compound, or material comprising the compound, may be determined at both a light state and dark state prior to testing, to determine a contrast ratio. During testing, the contrast ratio may be monitored (periodically or continually), the compound or material may be determined to have failed when the contrast ratio falls outside, or below, a selected range, or when the contrast ratio decreases to a percentage of the original contrast ratio. Photostability may also be expressed with reference to a light source or with reference to a type of light.
Chromophore solutions in Rhodiasolv IRIS were prepared at 1 to 10 wt % loading. Solutions were prepared in a glovebox by charging the chromophore and Rhodiasolv IRIS to a trace-clean vial, and the solution was stirred on a hotplate at 90° C. for 2-24 hours. After cooling, the chromophore solution was injected into glass weathering cells and the fill and vent ports were sealed with a thin disc of Kalrez (FFKM Perfluorinated Elastomer) and secured with a clamp and set-screw. The weathering cells were filled and sealed inside the glove box.
Measurement of Photostability
A. Fabrication of cuvettes. Two holes of 0.8 mm diameter were drilled at opposite ends in a 75×50 mm piece of float glass using a diamond drill bit in a rotary tool. The drilled glass and a matching piece of undrilled glass were then cleaned using hot soapy water, rinsed with deionized water and acetone and then dried with compressed air. A 5 mm wide frame was cut from a sheet of 50 μm thickness EVAL EF-F using a laser engraver. The EVAL frame was placed around the perimeter of one sheet of glass and sandwiched by the second sheet of glass. The glass-EVAL-glass sandwich was secured with tape and heated under vacuum (10 mmHg) for 30 minutes at 170° C. in a vacuum bag. After cooling, a third piece of float glass was PVB laminated to the non-drilled side of the sealed glass cells using Trosifol UV Extra Protect B150 PVB (400 nm UV cut-off).
B. Xenon arc weathering protocol. Devices were exposed to simulated weathering conditions inside a Xe-3-HS xenon arc chamber, manufactured by Q-labs Inc. The samples were weathered according to the following table. The devices were exposed to these conditions continuously, with no dark or spray cycles included.
C. Analysis of weathered chromophore solutions by LCMS. The set-screws, metal clamps and Kalrez plugs were removed from the cuvette to expose the fill port. A 5 mL plastic syringe (NORM-JECT®) equipped with a tip (Precision Tips, 0.010″ RED) was inserted into one fill port and the chromophore solution was withdrawn from the cuvette. The chromophore solution was then injected into a 2 mL amber vial (part number 5182-0716, Agilent Technology) prefilled with 1.5 mL LC-MS grade acetonitrile (HiPerSolbe CHROMANORM Acetonitrile, VWR BDH Chemicals). An aliquot of the acetonitrile solution (2 μL) was injected into the LC-MS system (Agilent Infinity 1290 LC-MS system with diode array detector) through an autosampler mechanism. Species in the injected sample were separated through a reverse phase column (Zorbax SB-C18, 2.1×50 mm, 1.8 μm, operated at 40° C.), using a mixture of acetonitrile (mixed with 1% formic acid v/v ratio), methanol (HiPerSolbe CHROMANORM Methanol, VWR BDH Chemicals) and water (HiPerSolbe CHROMANORM Water, VWR BDH Chemicals) as mobile phase.

[3] = UV/Vis absorbance at 400 nm and Yellowness Index of the ring-open isomer; details: for Abs @ 400 nm, RO (Absorption of ring-open isomer at 400 nm): 2×10^−5 M solution, 1 cm pathlength cuvette
Description: In addition to the above, chromophores should have acceptable colour for both the ring-opened and ring-closed isomers. For example, the ring-open isomer of the chromophore should have a Yellowness Index (YI) of less than about 10 and an absorbance at 400 nm, as measured for a 2×10^−5 M solution in a 1 cm pathlength cuvette. For the ring-closed isomer of the chromophore, the lambda max should be between about 475 nm and 700 nm, tunable according to desired colour and number of chromophores in the composition.
(§1) UV/Vis spectra were obtained using an OceanOptics™ Spectrophotometer. A 2×10^−5 M solution of compound in solvent was prepared, and photofaded using visible light until absorption in the visible region of the spectrum stabilized. The sample was then irradiated with simulated sunlight (QSUN SS-150 Solar Simulator with xenon arc lamp) until the absorption spectrum stabilized. To obtain PSS in the presence of a UV blocking film, a second sample was prepared and irradiated as described, with a UV blocking film inserted in the light path when irradiating.

[4] = Photostationary state (PSS) and lambda max under simulated sunlight (solar simulator); details: for PSS (SS): absorbance at photostationary state, simulated sunlight (solar simulator), 2×10^−5 M solution; for λmax (nm): peak in the visible range, ring-closed (dark) state
Description: The term “photostationary state” (PSS) refers to an equilibrium state of a compound or material where the rate of the ring closing (forward) reaction is equal to the rate of the ring-opening reaction, when irradiated with light in a given region of the spectrum. In other words, the ratio of the ring-open isomer to the ring-closed isomer is at an equilibrium. PSS may be expressed with reference to a light source, or with reference to a type of light, for example, QUV, Xenon-arc lamp, Q-SUN, natural or filtered sunlight, UV, VIS, IR, NIR, full spectrum or the like, or with reference to a particular wavelength or range of wavelengths, or in the presence or absence of a filter. Some ring-open and ring-closed isomers may undergo isomerization from one to the other in response to different wavelengths of light. If a wavelength of light is used where only one of the isomers absorbs, irradiation results in complete isomerization to the other form. 254 nm, 313 nm or 365 nm light are commonly used in studies of UV-absorbing isomers, but this may not be representative of the PSS under other light conditions that include the visible spectrum such as natural or simulated sunlight (“full spectrum” light) and/or with filters that block a portion of the UV component of the light. For example, in a ring-closed (dark) state, the magnitude of the maximum absorbance in the visible range may change with the light source (FIG. 1). The wavelength at this peak in the visible range may be referred to as lambda max, or λmax. […] When full spectrum light from a solar simulator (Xenon arc lamp) is used as a light source (line B), a balance is achieved between the ring-closed (dark) state induced by the UV component, and a ring-open (faded) state induced by the visible component of the light. Inclusion of a UV blocking layer in the light path (line A) may reduce the UV component of the light, and the ring-opening reaction induced by the visible light component becomes more prominent. […] Where desired, the ratio of ring-open and ring-closed isomers at a PSS may be quantified by ^1H NMR spectroscopy, such as described in U.S. Pat. No. 7,777,055. In various embodiments, compounds with an increased absorbance at a photostationary state (PSS), or increased contrast ratio, are an improvement over other diarylethene compounds. A compound with a greater absorbance in the visible range can be used in lesser quantities in a formulation or material to achieve a desired contrast ratio, whereas a compound with a lower absorbance at a PSS may need a higher concentration to achieve a desired contrast ratio.
Photostationary State (PSS)
as §1

[5] = 1 wt %, interpolated to 0.5 MJ/m^2 of energy exposure at 340 nm

SMILES	RC [O] (oxidation potential of ring-closed isomer) ([1]; ring-closed isomer)	RO [O] (oxidation potential of ring-open isomer) ([1]; ring-open isomer)	Ketone (%) ([2]; 3 wt % in Rhodiasolv IRIS)	Minus-2HF (%) ([2]; 3 wt % in Rhodiasolv IRIS)	Minus-HF (%) ([2]; 3 wt % in Rhodiasolv IRIS)	Sulfone (%) ([2]; 3 wt % in Rhodiasolv IRIS)	Chromophore Remaining (%) ([2]; 3 wt % in Rhodiasolv IRIS)	Ratio of chromophore remaining relative to S340 ([2]; 3 wt %, interpolated to 0.5 MJ/m^2 of energy exposure at 340 nm)	Photostability (in words) [2]	YI (Yellowness Index) [3]	Abs @ 400 nm, RO (Absorption of ring-open isomer at 400 nm) [3]	PSS (SS) [4]	λmax (nm) [4] [nm]	Ketone (%) ([2]; 1 wt % in Rhodiasolv IRIS)	Minus-2HF (%) ([2]; 1 wt % in Rhodiasolv IRIS)	Minus-HF (%) ([2]; 1 wt % in Rhodiasolv IRIS)	Sulfone (%) ([2]; 1 wt % in Rhodiasolv IRIS)	Chromophore Remaining (%) ([2]; 1 wt % in Rhodiasolv IRIS)	Ratio of chromophore remaining relative to S340 [2, 5]	Sum of degradation product percentages relative to the sum of degradation product percentages for S340 [2, 5]
COc1cc2oc(-c3ccc(C(C)(C)C)cc3)c(C3=C(c4cc(-c5cccs5)sc4-c4cccs4)C(F)(F)C(F)(F)C3(F)F)c2cc1OC [Chromophore S193, 3-(2-([2,2′:5′,2″-terthiophen]-3′-yl)-3,3,4,4,5,5-hexafluorocyclopent-1-en-1-yl)-2-(4-(tert-butyl)phenyl)-5,6-dimethoxybenzofuran]	1.02	1.41	0.0	2.1	1.4	0.0	92.7	1.02	high photostability	3.59	0.097	0.269	587	–	–	–	–	–	–	–
COc1cc2oc(-c3ccc(C(C)(C)C)cc3)c(C3=C(c4cc(-c5cc6c(s5)C(C)(C)CC6(C)C)sc4-c4cc5c(s4)C(C)(C)CC5(C)C)C(F)(F)C(F)(F)C3(F)F)c2cc1OC [Chromophore S404]	–	–	–	–	–	–	–	–	high photostability	11.1	0.182	0.429	599	0.0	0.0	0.0	0.0	100.0	1.10	0.00

— patent US20220220100A1 (SOLUTIA CANADA INC., priority 2019, published 2022)
